The test system of data set [1] is Mus musculus. The data set can be described thus: Compound was tested in vivo antitumor activity against Ehrlich ascites in mice at 12.5 mg/kg ip. It counts as functional. Particulars: route intraperitoneal.
Data set [2] has as its system HeLa. The data set can be described thus: Compound was tested in vitro for cytotoxicity against HeLa cells. It counts as functional, cell-based, Homo sapiens.
Data set [3] is described as follows: Compound was tested for initial contractile force 0.4+/-0.1 g (% deltabase line value).
Data set [4] concerns Mus musculus. The data set can be described thus: Compound was tested in vivo antitumor activity against Ehrlich ascites in mice at 25 mg/kg ip. It counts as functional. To be noted: route intraperitoneal.
The subject of data set [5] is Mus musculus. The data set can be described thus: Compound was tested in vivo antitumor activity against Ehrlich ascites in mice at 6.25 mg/kg ip. It counts as functional. To be noted: route intraperitoneal.
The subject of data set [6] is Mus musculus. The data set can be described thus: Compound was tested in vivo antitumor activity against Ehrlich ascites in mice at 1 mg/kg ip. It counts as functional. Particulars: route intraperitoneal.
Data set [7] relates to Mus musculus. The data set can be described thus: Compound was tested in vivo antitumor activity against Ehrlich ascites in mice at 50 mg/kg ip. It counts as functional. Particulars: route intraperitoneal.
Data set [8] concerns Mus musculus. The data set can be described thus: Compound was tested in vivo antitumor activity against Ehrlich ascites in mice at 100 mg/kg ip. It counts as functional. To be noted: route intraperitoneal.
A short description of data set [9]: Compound was tested for concentration to obtain Emax (microg).
Data set [10] is filed under the species Cavia porcellus. The data set can be described thus: Positive inotropic activity in isolated guinea pig atria, Concentration producing 50% of the maximal effect. It counts as functional.

The structures appear in SMILES notation. Values after ≈ are worked out from the molar mass of the structure shown.

As a reminder, the T/C is the result in the treated group divided by that in the control group, in per cent. What is called IC50 is the midpoint of a concentration-inhibition curve. Read a high IC50 as weaker potency. The compound `N=C(N)N/N=C/c1c(-c2ccc(Cl)cc2)nc2sc(Cl)cn12` gave a T/C in [1] of 166%. Also, the IC50 in data set [2] turned out to be 0.6 µg/mL (≈ 1.7 µM). Further, the Delta in data set [3] is 100%.

On to `N=C(N)N/N=C/c1c(-c2ccc(Cl)cc2Cl)nc2sccn12`, for which half-maximal inhibition in data set [2] (IC50) was put at 2.5 µg/mL (≈ 7.08 µM). The compound also showed a Delta in data set [3] of 100%. Further, the T/C in [4] is 146%.

Turning to `N=C(N)N/N=C/c1c(-c2ccc(Cl)c(Cl)c2Cl)nc2sccn12`, the T/C in [1] is 180%. Besides, in data set [2], the IC50 was 2 µg/mL (≈ 5.16 µM).

In the case of `Cc1cn2c(/C=N/N=C(N)N)c(-c3ccc(Cl)cc3)nc2s1`, in data set [2], the IC50 was 1.5 µg/mL (≈ 4.51 µM). Besides, the Delta in data set [3] worked out at 106%. Besides, the T/C in [5] was 166%.

Regarding `COc1cccc2c1C(=O)c1c(O)c3c(c(O)c1C2=O)C[C@@](O)(C(=O)CO)C[C@@H]3O[C@H]1C[C@H](N)[C@H](O)[C@H](C)O1` [DOXORUBICIN], the IC50 in data set [2] turned out to be 0.005 µg/mL (≈ 0.0092 µM). This compound came in with a T/C in data set [6] of 200%.

The compound `N=C(N)N/N=C/c1c(-c2ccc(Cl)c(Cl)c2Cl)nc2n1CCS2` yielded an IC50 in [2] of 2.5 µg/mL (≈ 6.42 µM). For the same compound, the Delta in data set [3] is 111%. The compound further yielded a T/C in [7] of 166%.

With `Cc1sc2nc(Cl)c(/C=N/N=C(N)N)n2c1C`, the IC50 in data set [2] was > 10 µg/mL. This compound returned a Delta in [3] of 137%. Moreover, the T/C in [7] is reported as 100%.

In data set [8], `O=c1[nH]cc(F)c(=O)[nH]1` [FLUOROURACIL] registered a T/C of 180%. In [2], this compound came in with a concentration for half-maximal inhibition (IC50) of 6 µg/mL (≈ 46.1 µM).

Consider `Cc1csc2nc(-c3ccc(Cl)cc3)c(/C=N/N=C(N)N)n12`, for which the concentration for half-maximal inhibition (IC50) in [2] amounted to 2 µg/mL (≈ 6.01 µM). The compound also yielded a Delta in [3] of 115%. For the same compound, the T/C in data set [4] is on record as 133%.

Compound `N=C(N)N/N=C/c1c(-c2ccc(Cl)cc2Cl)nc2n1CCS2` had a concentration for half-maximal inhibition (IC50) in [2] of 5 µg/mL (≈ 14.1 µM). This compound also returned a Delta in data set [3] of 119%. This compound also had a T/C in data set [7] of 200%.

As to `COc1cc([S+](C)[O-])ccc1-c1nc2ncccc2[nH]1` (configuration not stated) [SULMAZOLE], the Delta in data set [3] is reported as 163%. In data set [9], this compound showed an Emax of 350 µg.

As to `Cc1sc2nc(-c3ccc(Cl)cc3)c(/C=N/N=C(N)N)n2c1C`, the T/C in data set [1] amounted to 140%. The compound also returned a half-inhibitory concentration (IC50) in data set [2] of 2 µg/mL (≈ 5.77 µM). In addition, the Delta in data set [3] is listed as 118%.

With `Cc1csc2nc(Cl)c(/C=N/N=C(N)N)n12`, the IC50 in data set [2] was > 10 µg/mL. The compound further registered a Delta in data set [3] of 134%. The same compound registered a T/C in data set [7] of 106%.

In turn, `N=C(N)N/N=C/c1c(Cl)nc2sc(Cl)cn12` registered a T/C in data set [8] of 120%. Besides, the IC50 in [2] is > 10 µg/mL. In addition, the Delta in data set [3] is 135%.

On to `Cc1cn2c(/C=N/N=C(N)N)c(Cl)nc2s1`, for which the IC50 in data set [2] is > 10 µg/mL. This compound also gave a Delta in data set [3] of 146%. This compound also gave a T/C in data set [7] of 106%. The EC50 in data set [10] came out at 0.016 mg.

These data come from ChEMBL document CHEMBL1129045, “Potential antitumor agents. 24. Synthesis and pharmacological behavior of imidazo[2,1-b]thiazole guanylhydrazones bearing at least one chlorine” (J Med Chem, 1996).
